Measurements published in patent publication US9204653B2, “5-fluoro pyrimidine derivatives” (DOW AGROSCIENCES LLC, priority 2008, dated 2015).
Where two headings read alike, the source gives them in different places.

What was measured:
[1] = system: Mycosphaerella graminicola; Anamorph: Septoria tritici; Bayer Code SEPTTR; assay: Leaf blotch of wheat, foliar fungicide treatment, one day protectant (1DP) or three day curative (3DC); format: in vivo, Septoria tritici on wheat plants (variety Yuma); conditions: Zymoseptoria tritici; for pest or weed control at 25 ppm / pest or weed control at 100 ppm: rating of percent disease control; for pest or weed control at 50 ppm / pest or weed control at 200 ppm: % disease control rating
[2] = system: Cercospora beticola; Bayer Code CERCBE; assay: Leaf spot of sugar beets; format: in vivo, Cercospora beticola on sugar beets (variety HH-88); conditions: 24 h, % disease control rating, one day protectant; for pest or weed control at 25 ppm: read-out: CERCBE 1 DP 25 ppm; for pest or weed control at 75 ppm: read-out: CERCBE 1 DP 75 ppm
[3] = system: Venturia inaequalis; Bayer Code VENTIN; assay: Apple scab; format: in vivo; conditions: 24 h, % disease control rating, one day protectant; for pest or weed control at 25 ppm: read-out: VENTIN 1 DP 25 ppm; for pest or weed control at 75 ppm: read-out: VENTIN 1 DP 75 ppm
[4] = 24 h, one day protectant, read-out: SETTTR 1DP 25 ppm
[5] = 24 h, one day protectant, read-out: SEPTTR 1DP 100 ppm
[6] = 72 h, three day curative, read-out: SEPTTR 3DC 25 ppm
[7] = 72 h, three day curative, read-out: SEPTTR 3DC 100 ppm
[8] = 24 h, one day protectant (1DP), read-out: SETTTR 1DP 25 ppm
[9] = 24 h, one day protectant (1DP), read-out: SEPTTR 1DP 100 ppm
[10] = 72 h, three day curative (3DC), read-out: SEPTTR 3DC 25 ppm
[11] = 72 h, three day curative (3DC), read-out: SEPTTR 3DC 100 ppm

SMILES | pest or weed control at 25 ppm [1, 4] | pest or weed control at 100 ppm [1, 5] | pest or weed control at 25 ppm [2] | pest or weed control at 75 ppm [2] | pest or weed control at 25 ppm [3] | pest or weed control at 75 ppm [3] | pest or weed control at 25 ppm [1, 6] | pest or weed control at 100 ppm [1, 7] | pest or weed control at 25 ppm [1, 8] | pest or weed control at 100 ppm [1, 9] | pest or weed control at 25 ppm [1, 10] | pest or weed control at 100 ppm [1, 11] | pest or weed control at 50 ppm ([1]; 24 h, one day protectant) | pest or weed control at 200 ppm ([1]; 24 h, one day protectant)
Nc1nc(OCCSc2ccc(Cl)cc2)ncc1F [Compound 719] | 0 to 25% | 51 to 75% | 0 to 25% | 26 to 50% | 51 to 75% | 51 to 75% | – | – | – | – | – | – | – | –
CN(C)/C=N/c1nc(OCc2ccn(C)n2)ncc1F [Compound 730] | 76 to 100% | 76 to 100% | 26 to 50% | 26 to 50% | 51 to 75% | 51 to 75% | 76 to 100% | 76 to 100% | – | – | – | – | – | –
COc1ccc(COc2ncc(F)c(/N=C3\CCCCN3C)n2)cc1F [Compound 732] | 76 to 100% | 76 to 100% | 26 to 50% | 76 to 100% | 26 to 50% | 76 to 100% | 51 to 75% | 76 to 100% | – | – | – | – | – | –
CO/N=C\Nc1nc(OCc2ccc(F)cc2)ncc1F [Compound 739] | – | – | 0 to 25% | 0 to 25% | 26 to 50% | 51 to 75% | – | – | 76 to 100% | 76 to 100% | 76 to 100% | 76 to 100% | – | –
COc1cccc(COc2ncc(F)c(NCO)n2)c1 [Compound 741] | – | – | 0 to 25% | 0 to 25% | 51 to 75% | 76 to 100% | – | – | 26 to 50% | 76 to 100% | 76 to 100% | 76 to 100% | – | –
Cn1nc(Oc2ncc(F)c(N)n2)cc1C(F)(F)F [Compound 764] | – | – | 26 to 50% | 0 to 25% | 26 to 50% | 26 to 50% | – | – | 0 to 25% | 0 to 25% | 0 to 25% | 0 to 25% | – | –
Cc1c(COc2ncc(F)c(N)n2)cnn1C [Compound 800] | – | – | 76 to 100% | 76 to 100% | 76 to 100% | 76 to 100% | – | – | 76 to 100% | 76 to 100% | 76 to 100% | 76 to 100% | – | –
Fc1cnc(OCc2cccs2)nc1NCc1ccc2c(c1)OCO2 [Compound 804] | – | – | 0 to 25% | 0 to 25% | 0 to 25% | 0 to 25% | – | – | – | – | – | – | 26 to 50% | 51 to 75%
Fc1cnc(OCc2cccs2)nc1N1CCOCC1 [Compound 845] | – | – | 0 to 25% | 0 to 25% | 26 to 50% | 26 to 50% | – | – | – | – | – | – | 76 to 100% | 76 to 100%
Cc1cnc(CNc2nc(OCc3ccco3)ncc2F)cn1 [Compound 849] | – | – | 26 to 50% | 26 to 50% | 76 to 100% | 51 to 75% | – | – | – | – | – | – | 76 to 100% | 76 to 100%
Fc1cnc(OC2CCCCC2)nc1NCc1ccc(Cl)nc1 [Compound 858] | – | – | 26 to 50% | 26 to 50% | 26 to 50% | 0 to 25% | – | – | – | – | – | – | 0 to 25% | 26 to 50%
Fc1cnc(OCc2ccc(OC(F)(F)F)cc2)nc1NCc1cccs1 [Compound 860] | – | – | 0 to 25% | 26 to 50% | 26 to 50% | 51 to 75% | – | – | – | – | – | – | – | 76 to 100%
Fc1ccccc1CNc1nc(OCC(F)(F)F)ncc1F [Compound 894] | – | – | 0 to 25% | 0 to 25% | 0 to 25% | 26 to 50% | – | – | – | – | – | – | 0 to 25% | 0 to 25%
Nc1nc(OCCn2cncn2)ncc1F [Compound 933] | – | – | 26 to 50% | 26 to 50% | 0 to 25% | 26 to 50% | – | – | – | – | – | – | 26 to 50% | 51 to 75%
